Measurements reported in US6187810A, “Macrocyclic compounds made from suboxide units” (Donatur Dr. Kerek GmbH, priority 1996, dated 2001).
Read-outs that look alike come from different tables or passages of the source.

Legend:
mice = details: cited from earlier work; for toxicity in words (blood toxin, irritation): mouse, in vivo
hemoglobin = details: cited from earlier work
[1] = Acute toxicity of cardiac glycosides applied together with the active substances; type: in vivo
Description: Furthermore, as was experimentally established, the active substances according to the invention are capable to control the activity of several other essential enzymes, for example collegenases, hyaluronidases, phosphokinases and other enzymes. According to all indications, the active substances according to the invention are useable as endogenous ligands of the Na^+,K^+ -ATPase enzyme.

O=C=C=C=O [C3 O2, carbon suboxide]
tolerability limit in mice (mice; C3 O2 in dry air): 0.2-0.4% | toxicity in words (blood toxin, irritation) (mice): irritating to mucus membranes | toxicity in words (blood toxin, irritation) (mice; listed as Carbon suboxide): relatively strong blood toxin | binding to hemoglobin (hemoglobin): irreversibly binds hemoglobin

C[C@@H]1O[C@@H](O[C@H]2C[C@@H](O)[C@]3(CO)[C@H]4[C@H](O)C[C@]5(C)[C@@H](C6=CC(=O)OC6)CC[C@]5(O)[C@@H]4CC[C@]3(O)C2)[C@H](O)[C@H](O)[C@H]1O [ouabain]
toxic side-effects of cardiac glycoside ([1]; active substances applied together with the glycoside): reduction of the toxic side-effects

C[C@@H]1O[C@@H](O[C@H]2CC[C@]3(C=O)[C@H]4CC[C@]5(C)[C@@H](c6ccc(=O)oc6)CC[C@]5(O)[C@@H]4CC[C@]3(O)C2)[C@H](O)[C@H](O)[C@H]1O[C@@H]1O[C@H](CO)[C@@H](O)[C@H](O)[C@H]1O [hellebrin]
LD50 ([1]; with active substances at molar ratio 0.02 to 2/1 mol glycoside, preferably 1:1): considerably higher
